Source: PMC8533403, “Nostocyclopeptides as New Inhibitors of 20S Proteasome” (Biomolecules, 2021)
Each block holds one compound with its values, some of them ahead of it. Where a SMILES comes first, the peptide text is derived from it. [ ]: non-standard residue; d: D form. The star is where a group is joined. ξ: configuration not given here. ξPro(4ξ-Me) = CC1CNC(C(=O)O)C1; Cbz = O=C(OCc1ccccc1)*

Experiments:
[1] = system: 20S proteasome T-L activity; details: cited from earlier work
Description: (§1) The 26S proteasome is a large (2.4 MDa), multifunctional and ATP-dependent enzymatic complex with chymotrypsin-like (CT-L), trypsin-like (T-L), and caspase-like (C-L) activities. In eukaryotic organisms, it recognizes and degrades proteins with covalently attached ubiquitin (8.5 kDa protein). The 26S proteasome is composed of a 20S barrel-shaped core particle (700 kDa) responsible for proteolytic activity and one or two 19S (890 kDa) regulatory subunits with ubiquitin-binding sites. The 20S proteasome also occurs as a free complex that degrades protein ...

[2] = system: proteasome; set-up: method as in PMID 18801655; details: read-out: IC50, proteasome inhibition; cited from earlier work
Method: In the current work, to unequivocally state which of the cyanobacterial metabolites are responsible for this activity, the six isolated Ncps were assayed.

[3] = target: T1, human 20S proteasome (h20S), chymotrypsin-like (CT-L) activity (Homo sapiens, UniProt P28074); assay: Human 20S inhibition assay, chymotrypsin-like activity (Suc-LLVY-AMC); format: biochemical; details: Suc-LLVY-AMC 100 µM, pH 8.0, 37 °C
T1 construct: Human 20S proteasome (h20S) isolated from erythrocytes was used; from tissue; host or cells: human erythrocytes
Method: (§2) The 20S proteasome inhibition assay was performed following the procedure of Czerwonka et al.. Human 20S proteasome (h20S) isolated from erythrocytes was used. Latent h20S was activated with 0.01% SDS (sodium dodecyl sulfate). The final concentration of the proteasome was 1 µg mL^−1 (1.4 nM). The fluorogenic substrates, Suc-LLVY-AMC, Boc-LRR-AMC, and Z-LLE-AMC, were used as probes in the chymotrypsin-like, trypsin, and caspase-like activity assays, respectively, at a final concentration of 100 µM. Stock solutions of Ncps (10 mM) were prepared in dimethyl sulfoxide (DMSO) and were tested in the concentration range of 5 to 50 μM. The content of DMSO never exceeded 3% of the final reaction volume. The assays were performed in a 96-well plate in 50 mM TrisHCl, pH 8.0, at 37 °C. The percentage of the substrate hydrolysis was measured by the amount of the released AMC (aminomethyl coumarin) using Tecan Infinite M200 Pro (λ = 380–460 nm) spectrofluorimeter (Tecan Trading AG, Männedorf, Switzerland). The fluorescence measurements were performed at 2-min intervals for 60 min. The activity of h20S in the presence of isolated Ncps was calculated in relation to the control (DMSO). The known proteasome inhibitor PR11 [28] was used to ensure the correctness of the assay. The peptide at the final concentration of 0.2 µM decreases the relative CT-L activity of the h20S to 6% of the control.

[4] = target: T2, human 20S proteasome (h20S), trypsin-like (T-L) activity (Homo sapiens, UniProt Q99436); assay: Human 20S inhibition assay, trypsin-like activity (Boc-LRR-AMC); format: biochemical; details: tested 5 to 50 µM; Boc-LRR-AMC 100 µM; pH 8.0, 37 °C; no replications; Figure 2B
T2 construct: Human 20S proteasome (h20S) isolated from erythrocytes was used; from tissue; host or cells: human erythrocytes
Method: as §2

[5] = target: T3, human 20S proteasome (h20S), caspase-like (C-L) activity (Homo sapiens, UniProt P28072); assay: Human 20S inhibition assay, caspase-like activity (Z-LLE-AMC); format: biochemical; details: tested 5 to 50 µM; Z-LLE-AMC 100 µM; pH 8.0, 37 °C; no replications; Figure 2C
T3 construct: Human 20S proteasome (h20S) isolated from erythrocytes was used; from tissue; host or cells: human erythrocytes
Method: as §2

[6] = system: proteasome CT-L activity; details: cited from earlier work
Method: (§3) Nostodione A from Scytonema hofmannii, which inhibits CT-L activity (IC50 50 μM), contains indole moiety fused with diketone system.

[7] = system: Saccharomyces cerevisiae 20S proteasome CT-L activity; details: cited from earlier work
Method: as §3

[8] = system: 20S proteasome C-L activity; details: cited from earlier work
Description: as §1

[9] = system: 20S proteasome CT-L activity; details: cited from earlier work
Description: as §1

[10] = system: proteasome CT-L activity; details: cited from earlier work; remark: listed apart in the source
Description: as §1

[11] = system: 20S complex (proteasome); details: read-out: IC50, catalytic activity of proteasome; cited from earlier work
Method: as §3

Compound: CC(=O)N[C@@H](CC(C)C)C(=O)N[C@@H](CC(C)C)C(=O)N[C@H](C=O)CCCNC(=N)N [Leupeptin]
effect on T-L activity of the 20S proteasome [1]: inhibits T-L activity

Compound: CC(C)C[C@@H](C=O)NC(=O)[C@H](CC(C)C)NC(=O)[C@H](CC(C)C)NC(=O)OCc1ccccc1 [MG-132] (Cbz-Leu-Leu-Leu-aldehyde)
IC50 [2]: 0.11 µM

Compound: CCC(C)C(NC(=O)C(CCC(N)=O)NC(=O)CNC(=O)C(N)Cc1ccc(O)cc1)C(=O)NC(CO)C(=O)N1CC(C)CC1C(=O)NC(C=O)Cc1ccccc1 (stereo not drawn) [Ncp-A2-L, Tyr-Gly-Gln-Ile-Ser-MePro-Phe-H] (H-YGQIS[ξPro(4ξ-Me)]F-aldehyde; configuration not given here)
IC50 ([3]; h20S 1.4 nM, approximate (ca.)): ~50 µM

effect on CT-L activity of the human 20S proteasome at 50 µM ([3]; applied at 50 µM, triplicate, Figure 2A): inhibited
effect on T-L activity of the human 20S proteasome [4]: did not modify
effect on C-L activity of the human 20S proteasome [5]: did not modify
Compound: CC[C@H](C)[C@H](NC(=O)[C@@H](CCC(N)=O)NC(=O)CNC(=O)[C@@H](N)Cc1ccc(O)cc1)C(=O)N[C@@H](CO)C(=O)N1CCC[C@H]1C(=O)N[C@H](C=O)CC(C)C [Ncp-E2-L] (H-YG[dQ]ISPL-aldehyde; N-terminus assumed)

Compound: O=C1C(=O)c2c([nH]c3ccccc23)/C1=C\c1ccc(O)cc1 [Nostodione A]
IC50 [6]: 50 µM

Compound: CCCCCC(=O)N[C@H](C(=O)N[C@@H](CC[S+](C)[O-])C(=O)N[C@@H](CC(C)C)C(=O)[C@@]1(C)CO1)C(C)C (some centres unmarked) [carmaphycin A]
inhibition of CT-L activity of the Saccharomyces cerevisiae 20S proteasome [7]: low nanomolar concentrations

Compound: CCCCCC(=O)N[C@H](C(=O)N[C@@H](CCS(C)(=O)=O)C(=O)N[C@@H](CC(C)C)C(=O)[C@@]1(C)CO1)C(C)C [carmaphycin B]
inhibition of CT-L activity of the Saccharomyces cerevisiae 20S proteasome [7]: low nanomolar concentrations

Compound: CCCCCCCCC[C@@H](O)CC(=O)N[C@@H](CC(N)=O)C(=O)N[C@@H](CCC(N)=O)C(=O)N[C@H](C=O)CC(C)C [fellutamide B]
IC50 [8]: 1.2 µM
IC50 [9]: 0.0094 µM
IC50 [1]: 2 µM

Compound: Tyropeptin A
effect on CT-L activity [10]: inhibits mainly CT-L activity

Compound: scytonemide A
IC50 [11]: 0.096 µM
